Experimental data reported in PubChem BioAssay AID248 (DTP/NCI, 2004).
Toxic doses and inconclusive results are not listed. No stated cut-off is given here; in the data, active means T/C of 150% or more; inactive means T/C below 125%.

Tested on: L1210 leukemia ip in BDF1 mice, survival T/C
Experiment: NCI In Vivo Anticancer Drug Screen. Data for tumor model L1210 Leukemia (intraperitoneal) in B6D2F1 (BDF1) mice
Conditions: endpoint: mean survival time, higher = longer survival
Procedure, shortened: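 Tumor was transplanted into mice, which were then dosed with test compound or vehicle alone. Survival was recorded for each group, and the treated figure was expressed relative to the control figure.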

[1] = dose: 5.0 mg/kg/injection, schedule: Q01DX001 (ip), vehicle: saline
[2] = dose: 20.0 mg/kg/injection, schedule: Q01DX001 (ip), vehicle: saline
[3] = dose: 6.25 mg/kg/injection, schedule: Q01DX009 (ip), vehicle: saline
[4] = dose: 12.5 mg/kg/injection, schedule: Q01DX009 (ip), vehicle: saline
[5] = dose: 25.0 mg/kg/injection, schedule: Q01DX009 (ip), vehicle: saline
[6] = dose: 100.0 mg/kg/injection, schedule: Q01DX001 (ip), vehicle: saline
[7] = dose: 100.0 mg/kg/injection, schedule: Q01DX001 (ip), vehicle: saline with Tween-80
[8] = dose: 25.0 mg/kg/injection, schedule: Q04DX003 (ip), vehicle: saline
[9] = dose: 50.0 mg/kg/injection, schedule: Q01DX009 (ip), vehicle: saline
[10] = dose: 50.0 mg/kg/injection, schedule: Q04DX003 (ip), vehicle: saline
[11] = dose: 100.0 mg/kg/injection, schedule: Q01DX009 (ip), vehicle: saline
[12] = dose: 100.0 mg/kg/injection, schedule: Q04DX003 (ip), vehicle: saline
[13] = dose: 200.0 mg/kg/injection, schedule: Q01DX001 (ip), vehicle: saline
[14] = dose: 400.0 mg/kg/injection, schedule: Q01DX001 (ip), vehicle: saline
[15] = dose: 200.0 mg/kg/injection, schedule: Q04DX003 (ip), vehicle: saline
[16] = dose: 400.0 mg/kg/injection, schedule: Q04DX003 (ip), vehicle: saline
[17] = dose: 100.0 mg/kg/injection, schedule: Q01DX001 (ip), vehicle: Klucel (hydroxypropylcellulose) (HPC)
[18] = dose: 200.0 mg/kg/injection, schedule: Q01DX001 (ip), vehicle: Klucel (hydroxypropylcellulose) (HPC)

Measured: T/C

CC1(CO)C2CCC(O)C1C2 (stereo not given)
inactive: dose: 75.0 mg/kg/injection, schedule: Q01DX009 (ip), vehicle: saline 103 % of control | dose: 75.0 mg/kg/injection, schedule: Q04DX003 (ip), vehicle: saline 94 % of control | dose: 150.0 mg/kg/injection, schedule: Q01DX009 (ip), vehicle: saline 97 % of control | dose: 150.0 mg/kg/injection, schedule: Q04DX003 (ip), vehicle: saline 95 % of control | dose: 300.0 mg/kg/injection, schedule: Q01DX009 (ip), vehicle: saline 100 % of control | dose: 300.0 mg/kg/injection, schedule: Q04DX003 (ip), vehicle: saline 102 % of control

O=C1CCN(Cl)C(=O)N1Cl
inactive: [1] 93 % of control | dose: 10.0 mg/kg/injection, schedule: Q01DX001 (ip), vehicle: saline 95 % of control | [2] 97 % of control

CC1CC(C)(C)[N+]2=C(CCCC2)O1 (stereo not given)
inactive: [3] 96 % of control | [4] 94 % of control | [5] 103 % of control

CN1CCCC2C(c3ccccc3)C(C3=NCCCC3)C(c3ccccc3)CC21 (stereo not given)
inactive: [6] 88 % of control

CCOc1ccc(/C=C/c2cc[n+](C)cc2)cc1OC
inactive: dose: 25.0 mg/kg/injection, schedule: Q01DX001 (ip), vehicle: saline with Tween-80 108 % of control | dose: 50.0 mg/kg/injection, schedule: Q01DX001 (ip), vehicle: saline with Tween-80 95 % of control | [7] 93 % of control

CCNC(Cc1ccccc1)C1CCCO1 (stereo not given)
inactive: [3] 108 % of control | [4] 94 % of control | [5] 96 % of control | [8] 98 % of control | [9] 113 % of control | [10] 101 % of control | [11] 92 % of control | [12] 104 % of control

COCCNC(=O)SCCC(=O)O
inactive: [6] 96 % of control | [13] 100 % of control | [14] 100 % of control

CCN(CC)C(=O)C1CN2CCc3cc(OC)c(OC)cc3C2CC1O (stereo not given)
inactive: [5] 97 % of control | [8] 108 % of control | [9] 105 % of control | [10] 105 % of control | [11] 103 % of control | [12] 97 % of control | dose: 200.0 mg/kg/injection, schedule: Q01DX009 (ip), vehicle: saline 118 % of control | [15] 110 % of control | dose: 400.0 mg/kg/injection, schedule: Q01DX009 (ip), vehicle: saline 115 % of control | [16] 105 % of control

Cc1cc(OC(=O)c2ccccc2)cc(C)c1OC(=O)c1ccccc1
inactive: dose: 100.0 mg/kg/injection, schedule: Q04DX002 (ip), vehicle: saline with Tween-80 96 % of control | dose: 200.0 mg/kg/injection, schedule: Q04DX002 (ip), vehicle: saline with Tween-80 100 % of control | dose: 400.0 mg/kg/injection, schedule: Q04DX002 (ip), vehicle: saline with Tween-80 96 % of control

COc1ccc(CN2CCCN(Cc3ccc(OC)cc3OC)C2c2cccc(OC)c2O)c(OC)c1
inactive: dose: 50.0 mg/kg/injection, schedule: Q01DX001 (ip), vehicle: saline 95 % of control | [6] 92 % of control | [13] 92 % of control | [14] 95 % of control

CC(=O)OC1c2sccc2Cc2ccsc21
inactive: [7] 91 % of control | dose: 200.0 mg/kg/injection, schedule: Q01DX001 (ip), vehicle: saline with Tween-80 105 % of control

CC(C)(C)CC(C)(C)c1ccc(OCCOCCSC(=N)N)cc1
inactive: dose: 50.0 mg/kg/injection, schedule: Q01DX001 (ip), vehicle: carboxymethylcellulose (CMC) 93 % of control | dose: 100.0 mg/kg/injection, schedule: Q01DX001 (ip), vehicle: carboxymethylcellulose (CMC) 98 % of control

O=C1C=C(C23CC4CC(CC(C4)C2)C3)Nc2ccccc2N1
inactive: dose: 100.0 mg/kg/injection, schedule: Q04DX002 (ip), vehicle: Klucel (hydroxypropylcellulose) (HPC) 94 % of control | dose: 200.0 mg/kg/injection, schedule: Q04DX002 (ip), vehicle: Klucel (hydroxypropylcellulose) (HPC) 105 % of control | dose: 400.0 mg/kg/injection, schedule: Q04DX002 (ip), vehicle: Klucel (hydroxypropylcellulose) (HPC) 94 % of control

Cc1cc(C(=O)O)cc(C)c1NC(=O)N(CCCl)N=O
inactive: dose: 46.0 mg/kg/injection, schedule: Q01DX001 (ip), vehicle: other 91 % of control | dose: 62.0 mg/kg/injection, schedule: Q01DX001 (ip), vehicle: other 90 % of control

CCCCOC(=O)Nc1ccccc1
inactive: dose: 100.0 mg/kg/injection, schedule: Q04DX003 (ip), vehicle: gum acacia 101 % of control | dose: 200.0 mg/kg/injection, schedule: Q04DX003 (ip), vehicle: gum acacia 108 % of control | dose: 400.0 mg/kg/injection, schedule: Q04DX003 (ip), vehicle: gum acacia 109 % of control

CCCCCCCCCCCCCCCCCC(=O)OCCCCCCCCCCCCC
inactive: dose: 100.0 mg/kg/injection, schedule: Q01DX009 (ip), vehicle: saline sonified 88 % of control | dose: 100.0 mg/kg/injection, schedule: Q04DX003 (ip), vehicle: saline with Tween-80 100 % of control | dose: 200.0 mg/kg/injection, schedule: Q01DX009 (ip), vehicle: saline sonified 95 % of control | dose: 200.0 mg/kg/injection, schedule: Q04DX003 (ip), vehicle: saline with Tween-80 92 % of control | dose: 400.0 mg/kg/injection, schedule: Q01DX009 (ip), vehicle: saline sonified 91 % of control | dose: 400.0 mg/kg/injection, schedule: Q04DX003 (ip), vehicle: saline with Tween-80 86 % of control

O=[N+]([O-])c1ccc(NCc2ccccc2)c2c1no[n+]2[O-]
inactive: dose: 37.5 mg/kg/injection, schedule: Q04DX003 (ip), vehicle: saline with Tween-80 100 % of control | dose: 75.0 mg/kg/injection, schedule: Q04DX003 (ip), vehicle: saline with Tween-80 106 % of control | dose: 150.0 mg/kg/injection, schedule: Q04DX003 (ip), vehicle: saline with Tween-80 100 % of control

CN(C)c1ccc(/C=[N+](\[O-])c2cccc(Cl)c2)cc1
inactive: [17] 95 % of control | dose: 100.0 mg/kg/injection, schedule: Q04DX003 (ip), vehicle: Klucel (hydroxypropylcellulose) (HPC) 102 % of control | [18] 97 % of control | dose: 200.0 mg/kg/injection, schedule: Q04DX003 (ip), vehicle: Klucel (hydroxypropylcellulose) (HPC) 100 % of control | dose: 400.0 mg/kg/injection, schedule: Q04DX003 (ip), vehicle: Klucel (hydroxypropylcellulose) (HPC) 107 % of control

CCNS(=O)(=O)c1cccc(C(=S)OCC)c1
inactive: [17] 105 % of control | [18] 101 % of control | dose: 400.0 mg/kg/injection, schedule: Q01DX001 (ip), vehicle: Klucel (hydroxypropylcellulose) (HPC) 108 % of control

CC(CCl)N(CCCl)Cc1cccc(Nc2ncnc3nc[nH]c23)c1 (stereo not given)
inactive: dose: 1.1 mg/kg/injection, schedule: Q01DX015 (ip), vehicle: saline 122 % of control | dose: 1.8 mg/kg/injection, schedule: Q01DX015 (ip), vehicle: saline 112 % of control | dose: 3.0 mg/kg/injection, schedule: Q01DX015 (ip), vehicle: saline 109 % of control | dose: 4.4 mg/kg/injection, schedule: Q01DX001 (ip), vehicle: saline 120 % of control | [1] 121 % of control | dose: 5.0 mg/kg/injection, schedule: Q01DX015 (ip), vehicle: saline 102 % of control | dose: 6.6 mg/kg/injection, schedule: Q01DX001 (ip), vehicle: saline 120 % of control | [2] 117 % of control

CC12CCC3c4ccc(Oc5ccccc5[N+](=O)[O-])cc4CCC3C1CCC2=O (stereo not given)
inactive: dose: 100.0 mg/kg/injection, schedule: Q01DX001 (sc), vehicle: steriod suspending solution 100 % of control | dose: 200.0 mg/kg/injection, schedule: Q01DX001 (sc), vehicle: steriod suspending solution 103 % of control | dose: 400.0 mg/kg/injection, schedule: Q01DX001 (sc), vehicle: steriod suspending solution 103 % of control

Cn1ccc[n+]1C
inactive: [6] 93 % of control | [13] 101 % of control | [14] 92 % of control

NC(N)=Nc1ccc(S(=O)(=O)O)cc1
inactive: [12] 103 % of control | [15] 105 % of control | [16] 103 % of control
